The text below walks through data of patent US10959428B2, “Hematophagous arthropod repellent composition” (WOOJUNG BIO INC., priority 2017, dated 2021).

For test [1], the system named is adult Aedes aegypti. Briefly: cage-in-arm test, complete protection time (CPT). Type of test: in vivo. To be noted: 4 mg. As for the experimental part:
For determining the repellency of prepared samples against adults of Aedes aegypti and Aedes albopicus, a cage-in-arm test was carried out as a method for exposure to skin. Namely, on a back of the hand of a rubber glove, a hole with diameter of 5 cm was created, and, onto an exposed back of the testees, various samples prepared by dissolution in 100 μl of ethanol were applied, and then the skin test was carried out. The testees were healthy males between the ages of 21 and 40. The control group was treated with 100 μl of ethanol only. Female adults (5 to 8 day old) of Aedes aegypti or Aedes albopicus (250 to 300 mosquitoes) were added to a cage for growing adult mosquitoes (25×25×25 cm^3), and adapted to the indoor conditions for 12 to 24 hours before starting the test. When the upper arm of the control group is exposed for 1 minute and at least 6 mosquitoes sit on the upper arm or show a bloodsucking behavior, it was determined as sufficient biting pressure, and then the repellency test was carried out. […] The time period between the time point with initial treatment of a material and the time point at which 2 or more mosquitoes continuously sit on the treatment area or show the bloodsucking behavior was defined as complete protection time (CPT). Furthermore, for obtaining the repellency with regard to concentration, exposure was made for a constant time period regardless of the above and the repellency was calculated by using the following formula. Accordingly, the effect was compared among each test samples. All tests were carried out in triplicate. Repellency %=(Number of insects showing bloodsucking behavior in non-treatment group−Number of insects showing bloodsucking behavior in treatment group)/Number of insects showing bloodsucking behavior in non-treatment group)×100 <Tick Repellency>

In test [2] the test system is adult Aedes albopicus. Kind of test: cage-in-arm test, repellency and CPT. The test is classed as in vivo, Aedes albopictus. The note with it: for CPT: 4 mg, adult Aedes albopicus. As for the experimental part: For determining the repellency of prepared samples against adults of Aedes aegypti and Aedes albopicus, a cage-in-arm test was carried out as a method for exposure to skin. Namely, on a back of the hand of a rubber glove, a hole with diameter of 5 cm was created, and, onto an exposed back of the testees, various samples prepared by dissolution in 100 μl of ethanol were applied, and then the skin test was carried out. The testees were healthy males between the ages of 21 and 40. The control group was treated with 100 μl of ethanol only. Female adults (5 to 8 day old) of Aedes aegypti or Aedes albopicus (250 to 300 mosquitoes) were added to a cage for growing adult mosquitoes (25×25×25 cm^3), and adapted to the indoor conditions for 12 to 24 hours before starting the test. When the upper arm of the control group is exposed for 1 minute and at least 6 mosquitoes sit on the upper arm or show a bloodsucking behavior, it was determined as sufficient biting pressure, and then the repellency test was carried out. With an interval of 30 minutes, by exposing the upper arm, which has been treated with the above composition, for 3 minutes, and, when the adult mosquito sits on the arm for 2 seconds or longer or at least two mosquitoes showing the behavior of mouth injection to skin or direct bloodsucking are found from consecutive tests, the test was stopped. The time period between the time point with initial treatment of a material and the time point at which 2 or more mosquitoes continuously sit on the treatment area or show the bloodsucking behavior was defined as complete protection time (CPT). Furthermore, for obtaining the repellency with regard to concentration, exposure was made for a constant time period regardless of the above and the repellency was calculated by using the following formula. Accordingly, the effect was compared among each test samples. All tests were carried out in triplicate. Repellency %=(Number of insects showing bloodsucking behavior in non-treatment group−Number of insects showing bloodsucking behavior in treatment group)/Number of insects showing bloodsucking behavior in non-treatment group)×100 <Tick Repellency>
For reference, comparison of the mosquito repellency was made by using clove oil as a natural positive control group and DEET as a synthetic positive control group.
To determine the repellency of plant essential oil alone against adult Aedes albopicus and nymphs of Haemaphysalis longicornis, the cage-in-arm test and finger-tip method were carried out, in the same manner as Examples 1-2 and 1-3, with each of 16 kinds of plant essential oil of Table 4.

In turn, `COc1cc(CCC(C)=O)ccc1O` [Vanillyl acetone, vanillyl acetone] displayed a CPT in test [1] (adult Aedes aegypti) of 10 min.

In the case of `CCN(CC)C(=O)c1cccc(C)c1` [DEET, N,N-diethyl-m-toluamide], the CPT in test [1] (adult Aedes aegypti), in test [1] (adult Aedes aegypti (Table 6)) and in test [2] was 90 min throughout. Besides, the “Repellency (mean ± SE, %)” value came to 77 ± 5.8% in test [2] (0.03 mg/cm^2, 10 minutes); 67 ± 3.3% in test [2] (0.03 mg/cm^2, 30 minutes); 69 ± 6.9% in test [2] (0.03 mg/cm^2, 60 minutes); 19 ± 5.2% in test [2] (0.03 mg/cm^2, 90 minutes); 100 ± 0% in test [2] (0.10 mg/cm^2, 10 minutes); 96 ± 2.6% in test [2] (0.10 mg/cm^2, 30 minutes). Besides, the “Repellency (mean ± SE, %)” value amounted to 86 ± 4.2% in test [2] (0.10 mg/cm^2, 60 minutes); 83 ± 4.3% in test [2] (0.10 mg/cm^2, 90 minutes); 82 ± 9.5% in test [2] (0.10 mg/cm^2, 120 minutes); 57 ± 5.2% in test [2] (0.10 mg/cm^2, 150 minutes); 27 ± 3.8% in test [2] (0.10 mg/cm^2, 180 minutes); 100 ± 0% in test [2] (0.20 mg/cm^2, 10 minutes). In addition, the “Repellency (mean ± SE, %)” value in test [2] (0.20 mg/cm^2, 30 minutes) came to 100 ± 0%; in test [2] (0.20 mg/cm^2, 60 minutes) it was 100 ± 0%; in test [2] (0.20 mg/cm^2, 90 minutes), 100 ± 0%; in test [2] (0.20 mg/cm^2, 120 minutes), 95 ± 3.3%; in test [2] (0.20 mg/cm^2, 150 minutes), 96 ± 1.2%; in test [2] (0.20 mg/cm^2, 180 minutes), 85 ± 3.0%. For the same compound, the “Repellency (mean ± SE, %)” value turned out to be 100 ± 0% in test [2] (0.25 mg/cm^2, 10 minutes); 100 ± 0% in test [2] (0.25 mg/cm^2, 30 minutes); 100 ± 0% in test [2] (0.25 mg/cm^2, 60 minutes); 100 ± 0% in test [2] (0.25 mg/cm^2, 90 minutes); 100 ± 0% in test [2] (0.25 mg/cm^2, 120 minutes); 100 ± 0% in test [2] (0.25 mg/cm^2, 150 minutes). In test [2] (0.25 mg/cm^2, 180 minutes), the “Repellency (mean ± SE, %)” value came to 84 ± 4.3%.

Compound `C=CCc1ccc(O)c(OC)c1` [Eugenol, eugenol, reference compound] came in with a CPT in test [1] (adult Aedes aegypti) of 10 min.

`C=CCc1ccc(O)c(OC)c1` [Eugenol (clove), Eugenol]: the CPT in test [2] came out at 10 min.

Turning to `COc1cc(C=O)ccc1OCc1ccccc1` [4-Benzyloxy-3-methoxybenzaldehyde, 4-benzyloxy-3-methoxybenzaldehyde], in test [1] (adult Aedes aegypti), the CPT was found to be 22 min.

In the case of `COc1cc(C=O)ccc1OC(=O)OC(C)(C)C` [tert-butyl 4-formyl-2-methoxyphenyl carbonate], the CPT in test [1] (adult Aedes aegypti) came out at 10 min.

In test [1] (adult Aedes aegypti), `COc1cc(CN)ccc1O.Cl` [4-hydroxy-3-methoxybenzylamine hydrochloride] returned a CPT of 10 min.

Turning to `COc1cc(C=O)ccc1O` [Vanillin], the CPT in test [1] (adult Aedes aegypti) was determined as 30 min.

As to vanillin isobutyrate, the CPT in test [1] (adult Aedes aegypti) turned out to be 45 min.
